Laboratory results taken from ChEMBL document CHEMBL1201862, “PubChem BioAssay data set” (2004).
Calls of active or inactive are those of the source.

Columns and labels:
[1] = molecular target: T1, Corticotropin-releasing factor receptor 2/Corticotropin-releasing factor-binding protein (Homo sapiens, UniProt P24387+Q13324); assay: Dose Response confirmation of uHTS hits for small molecule antagonists of the CRF-binding protein and CRF-R2 receptor complex.; assay type: functional; conditions: read-out: IC50_Mean
T1 sequence (Q13324 whole entry): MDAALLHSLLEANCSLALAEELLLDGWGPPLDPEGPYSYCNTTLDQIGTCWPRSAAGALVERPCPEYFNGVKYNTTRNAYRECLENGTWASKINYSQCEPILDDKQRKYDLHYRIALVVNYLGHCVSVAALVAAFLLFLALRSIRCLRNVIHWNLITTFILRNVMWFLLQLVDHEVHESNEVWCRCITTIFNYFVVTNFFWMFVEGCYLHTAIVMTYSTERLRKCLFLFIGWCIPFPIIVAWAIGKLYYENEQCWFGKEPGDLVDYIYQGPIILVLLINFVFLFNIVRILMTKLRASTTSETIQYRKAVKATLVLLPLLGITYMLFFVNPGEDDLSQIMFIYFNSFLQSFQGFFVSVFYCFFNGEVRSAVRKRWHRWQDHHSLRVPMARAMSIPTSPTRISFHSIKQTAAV
T1 sequence (P24387 whole entry): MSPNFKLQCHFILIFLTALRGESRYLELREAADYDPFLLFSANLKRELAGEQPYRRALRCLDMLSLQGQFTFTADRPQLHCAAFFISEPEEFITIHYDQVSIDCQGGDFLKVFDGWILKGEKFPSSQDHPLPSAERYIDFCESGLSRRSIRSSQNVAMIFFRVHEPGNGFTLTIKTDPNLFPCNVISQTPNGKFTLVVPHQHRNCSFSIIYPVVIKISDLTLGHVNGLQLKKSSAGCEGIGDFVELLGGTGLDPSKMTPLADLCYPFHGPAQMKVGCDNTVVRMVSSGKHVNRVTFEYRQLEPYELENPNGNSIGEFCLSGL

[2] = CRF-BP/CRF-R2 complex antagonists, dose response, cell-based, uHTS hits, 384-well (AID 651639); assay type: functional, Homo sapiens; conditions: read-out: IC50_Mean
[3] = molecular target: T1, Corticotropin-releasing factor receptor 2/Corticotropin-releasing factor-binding protein; assay: activators of CRF receptor 2 with binding protein – uHTS hits, confirmation (AID 602473); assay type: functional; conditions: read-out: EC50_Mean
[4] = molecular target: Cytochrome P450 2C19 (Homo sapiens, UniProt P33261); assay: Cytochrome panel assay with activity outcomes. Panel member name: p450-cyp2c19 Compounds with AC50 equal or less than 10 uM are considered active; assay type: functional; conditions: read-out: AC50
Sequence of Cytochrome P450 2C19 (P33261 whole entry): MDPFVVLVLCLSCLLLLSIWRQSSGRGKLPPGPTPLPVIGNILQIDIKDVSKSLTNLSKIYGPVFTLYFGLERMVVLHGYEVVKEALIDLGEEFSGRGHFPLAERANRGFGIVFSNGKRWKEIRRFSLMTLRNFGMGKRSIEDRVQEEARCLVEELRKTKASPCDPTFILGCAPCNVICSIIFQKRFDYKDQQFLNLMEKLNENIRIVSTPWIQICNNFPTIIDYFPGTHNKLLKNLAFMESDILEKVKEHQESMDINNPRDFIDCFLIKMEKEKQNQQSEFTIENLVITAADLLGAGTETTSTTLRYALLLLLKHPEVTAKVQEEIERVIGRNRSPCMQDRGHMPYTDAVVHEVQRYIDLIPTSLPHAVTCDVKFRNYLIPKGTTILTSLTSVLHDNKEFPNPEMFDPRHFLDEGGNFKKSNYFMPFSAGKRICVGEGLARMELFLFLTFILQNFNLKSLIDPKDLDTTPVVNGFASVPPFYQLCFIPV

[5] = molecular target: Cytochrome P450 2C9 (Homo sapiens, UniProt P11712)
Sequence of Cytochrome P450 2C9 (P11712 whole entry): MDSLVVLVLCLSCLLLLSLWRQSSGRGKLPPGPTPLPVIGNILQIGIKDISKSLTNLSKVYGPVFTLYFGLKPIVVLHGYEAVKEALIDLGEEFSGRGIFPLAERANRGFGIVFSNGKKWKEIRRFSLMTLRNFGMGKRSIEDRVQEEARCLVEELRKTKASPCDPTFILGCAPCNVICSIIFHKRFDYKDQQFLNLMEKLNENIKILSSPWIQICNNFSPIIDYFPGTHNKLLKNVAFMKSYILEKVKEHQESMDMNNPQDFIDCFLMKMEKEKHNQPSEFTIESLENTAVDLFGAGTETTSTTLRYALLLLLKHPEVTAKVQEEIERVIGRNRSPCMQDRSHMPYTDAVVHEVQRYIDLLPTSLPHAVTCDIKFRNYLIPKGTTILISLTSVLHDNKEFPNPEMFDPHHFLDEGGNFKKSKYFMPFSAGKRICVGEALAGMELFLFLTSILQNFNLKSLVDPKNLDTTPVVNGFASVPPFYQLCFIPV

[6] = tested on: Vero; assay: cells; assay type: functional, cell-based; conditions: Chlorocebus sabaeus
[7] = tested on: Vero; assay: cells; assay type: functional; conditions: Chlorocebus sabaeus
[8] = tested on: BJ; assay: cells; assay type: functional, cell-based; conditions: Homo sapiens
[9] = tested on: BJ; assay: cytotoxicity toward BJ-TERT-LT-ST fibroblasts, dose response, cell-based, RAS-independent, luminescence (AID 1935); assay type: functional; conditions: Homo sapiens;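 also: BJ fibroblasts immortalized with TERT plus LT and ST oncogenes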
[10] = tested on: BJ; assay: cytotoxicity toward BJ-TERT fibroblasts, dose response, cell-based, RAS-independent, luminescence (AID 1933); assay type: functional; conditions: Homo sapiens
[11] = cytotoxicity toward DRD oncogenic fibroblasts, dose response, cell-based, non-viral oncogenic, luminescence (AID 1934); assay type: functional; conditions: Homo sapiens
[12] = molecular target: Paired box protein Pax-8 (Homo sapiens, UniProt Q06710); assay: inhibitors of PAX8-driven TPO luciferase reporter, dose response, RMG-I cells, cherry-pick (AID 687027); assay type: functional, cell-based;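 also: luciferase reporter driven by Pax8 target thyroperoxidase promoter measured by SteadyGlo luminescence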
Sequence of Paired box protein Pax-8 (Q06710 whole entry): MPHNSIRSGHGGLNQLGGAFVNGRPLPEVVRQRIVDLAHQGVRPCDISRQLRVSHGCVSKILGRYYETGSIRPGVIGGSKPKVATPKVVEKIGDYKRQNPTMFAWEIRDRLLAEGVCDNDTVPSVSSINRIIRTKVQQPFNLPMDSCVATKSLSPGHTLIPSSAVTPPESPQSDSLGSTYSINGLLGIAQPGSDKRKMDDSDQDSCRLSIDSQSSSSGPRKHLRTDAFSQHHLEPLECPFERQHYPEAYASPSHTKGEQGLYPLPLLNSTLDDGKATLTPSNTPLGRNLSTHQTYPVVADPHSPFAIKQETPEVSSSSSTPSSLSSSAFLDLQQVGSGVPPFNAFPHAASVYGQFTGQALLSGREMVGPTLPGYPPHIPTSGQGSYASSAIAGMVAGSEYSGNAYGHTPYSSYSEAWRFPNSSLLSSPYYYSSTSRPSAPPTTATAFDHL

[13] = NIH:OVCAR-3 ovarian cancer cell cytotoxicity, dose response, PAX8 inhibitor project, plate reader, dry powder samples (AID 743044); assay type: functional, cell-based
[14] = IGROV1 ovarian cancer cell cytotoxicity, dose response, PAX8 inhibitor project, plate reader, dry powder samples (AID 743043); assay type: functional, cell-based; conditions: IGROV-1
[15] = molecular target: Cytochrome P450 3A4 (Homo sapiens, UniProt P08684);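 also: CYP3A4 tested as one member of a cytochrome P450 panel screen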
Sequence of Cytochrome P450 3A4 (P08684 whole entry): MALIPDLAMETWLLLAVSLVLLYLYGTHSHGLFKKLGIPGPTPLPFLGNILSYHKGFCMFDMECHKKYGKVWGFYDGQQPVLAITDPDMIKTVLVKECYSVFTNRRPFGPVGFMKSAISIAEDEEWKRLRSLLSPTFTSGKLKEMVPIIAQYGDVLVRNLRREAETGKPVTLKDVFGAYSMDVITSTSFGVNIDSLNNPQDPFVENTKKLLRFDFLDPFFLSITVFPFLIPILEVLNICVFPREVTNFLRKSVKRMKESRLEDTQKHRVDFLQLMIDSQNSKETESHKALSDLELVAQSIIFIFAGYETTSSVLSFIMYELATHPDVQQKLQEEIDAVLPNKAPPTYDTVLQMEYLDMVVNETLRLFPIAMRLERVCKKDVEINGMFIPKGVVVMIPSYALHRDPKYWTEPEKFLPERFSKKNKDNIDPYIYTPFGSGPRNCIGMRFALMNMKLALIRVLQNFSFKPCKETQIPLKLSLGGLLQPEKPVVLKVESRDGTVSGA

[16] = tested on: INS1; assay: beta cell apoptosis inhibitors, cytokine rescue, dose response, luminescence, retest (AID 449756); assay type: functional, cell-based; conditions: Rattus norvegicus;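 also: cell death triggered by IL-1 beta plus TNF-alpha plus IFN-gamma mixture; protective hits raise ATP signal compared with cytokine alone wells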
[17] = molecular target: T2, Microphthalmia-associated transcription factor (Homo sapiens, UniProt O75030); assay: TRPM1 promoter luciferase signal decrease, dose response, MITF inhibitor project, cell-based, SK-MEL-5, cherry-picked, set 3 (AID 493073); assay type: functional
T2 sequence (O75030 whole entry): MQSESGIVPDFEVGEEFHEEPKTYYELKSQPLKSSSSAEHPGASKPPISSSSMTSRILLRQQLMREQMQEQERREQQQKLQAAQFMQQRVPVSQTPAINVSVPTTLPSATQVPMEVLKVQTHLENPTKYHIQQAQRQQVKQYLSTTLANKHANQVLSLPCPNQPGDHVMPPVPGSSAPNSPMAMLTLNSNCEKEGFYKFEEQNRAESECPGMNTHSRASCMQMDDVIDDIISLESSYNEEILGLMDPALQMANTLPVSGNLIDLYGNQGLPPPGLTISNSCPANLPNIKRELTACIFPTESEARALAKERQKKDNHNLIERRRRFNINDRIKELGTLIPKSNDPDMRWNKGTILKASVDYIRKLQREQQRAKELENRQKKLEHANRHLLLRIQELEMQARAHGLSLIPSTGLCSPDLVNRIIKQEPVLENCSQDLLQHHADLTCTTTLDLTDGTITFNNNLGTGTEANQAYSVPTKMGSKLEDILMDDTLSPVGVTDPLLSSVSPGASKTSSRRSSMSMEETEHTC

[18] = StAR promoter reporter inhibition counter-screen, dose response, counter-screen for LRH-1 inverse agonist project, cell-based, luminescence, luciferase reporter (AID 651969); assay type: functional
[19] = tested on: H4; assay: Luminescence Cell-Based Dose Response HTS to Identify Activators of 5'UTR Stem-Loop Driven Prion Protein mRNA Translation in H4 Neuroglioblastoma Cells. [Related pubchem assays: 1829 (Project Summary), 1814 (Primary HTS)]; assay type: functional; conditions: Homo sapiens
[20] = molecular target: Nuclear receptor subfamily 5 group A member 2 (Homo sapiens, UniProt O00482); assay type: functional, cell-based;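 also: HEK293T cells transfected with LRH-1 and a StAR promoter luciferase reporter; potency for inhibitors that lower LRH-1 driven reporter light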
Sequence of Nuclear receptor subfamily 5 group A member 2 (O00482 whole entry): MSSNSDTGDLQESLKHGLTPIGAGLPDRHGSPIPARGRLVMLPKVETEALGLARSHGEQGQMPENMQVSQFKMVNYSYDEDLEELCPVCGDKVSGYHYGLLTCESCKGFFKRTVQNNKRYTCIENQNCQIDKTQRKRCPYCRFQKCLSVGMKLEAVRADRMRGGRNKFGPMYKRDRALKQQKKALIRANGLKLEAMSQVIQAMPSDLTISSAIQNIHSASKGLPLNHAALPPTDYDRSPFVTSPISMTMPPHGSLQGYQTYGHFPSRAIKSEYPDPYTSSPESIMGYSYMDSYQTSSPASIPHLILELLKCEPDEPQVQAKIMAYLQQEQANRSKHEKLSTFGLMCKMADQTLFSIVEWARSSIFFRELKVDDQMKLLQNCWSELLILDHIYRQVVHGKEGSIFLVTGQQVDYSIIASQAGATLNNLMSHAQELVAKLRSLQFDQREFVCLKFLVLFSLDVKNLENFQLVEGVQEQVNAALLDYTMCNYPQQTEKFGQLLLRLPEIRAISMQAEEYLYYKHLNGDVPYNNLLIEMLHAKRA

[21] = Luminescence Cell-Based Dose Response HTS to Identify Activators of Luciferase Translation or Activity in H4 […] Cells. [Related pubchem assays: 1829 (Project Summary), 1814 (Primary HTS)]; assay type: functional
[22] = molecular target: Steroidogenic factor 1 (Homo sapiens, UniProt Q13285); assay: Counterscreen for inverse agonists of the liver receptor homolog-1 (LRH-1; NR5A2): Luminescence-based cell-based high throughput dose response assay to identify inverse agonists of the Steroidogenic Factor 1 Nuclear Receptor (SF1; NR5A1).; assay type: functional
Sequence of Steroidogenic factor 1 (Q13285 whole entry): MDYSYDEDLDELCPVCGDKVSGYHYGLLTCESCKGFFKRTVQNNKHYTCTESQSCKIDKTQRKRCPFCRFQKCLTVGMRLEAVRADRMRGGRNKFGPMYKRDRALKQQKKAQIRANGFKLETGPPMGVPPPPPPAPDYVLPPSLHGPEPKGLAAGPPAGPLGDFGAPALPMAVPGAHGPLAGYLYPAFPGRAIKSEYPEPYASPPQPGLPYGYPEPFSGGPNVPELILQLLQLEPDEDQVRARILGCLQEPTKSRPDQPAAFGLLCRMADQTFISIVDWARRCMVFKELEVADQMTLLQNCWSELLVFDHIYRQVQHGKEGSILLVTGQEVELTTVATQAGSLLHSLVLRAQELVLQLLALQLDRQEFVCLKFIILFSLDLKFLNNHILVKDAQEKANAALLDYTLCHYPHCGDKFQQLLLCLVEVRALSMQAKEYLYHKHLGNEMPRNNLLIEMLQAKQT

[23] = inhibitors of SNCA 5'UTR-driven reporter translation, confirmation, H4 neuroglioma cells, luminescence (AID 1988); assay type: functional, cell-based
[24] = inhibitors of firefly luciferase expression or activity, dose response, H4 neuroglioma cells, luminescence (AID 1990); assay type: functional, cell-based
[25] = Luminescence Cell-Based Dose Response HTS to Identify Inhibitors of 5'UTR Stem-Loop Driven Prion Protein mRNA Translation in H4 Neuroglioblastoma Cells. [Related pubchem assays: 1827 (Project Summary), 1813 (Primary HTS)]; assay type: functional
[26] = molecular target: Glyceraldehyde-3-phosphate dehydrogenase (Homo sapiens, UniProt P04406)
Sequence of Glyceraldehyde-3-phosphate dehydrogenase (P04406 whole entry): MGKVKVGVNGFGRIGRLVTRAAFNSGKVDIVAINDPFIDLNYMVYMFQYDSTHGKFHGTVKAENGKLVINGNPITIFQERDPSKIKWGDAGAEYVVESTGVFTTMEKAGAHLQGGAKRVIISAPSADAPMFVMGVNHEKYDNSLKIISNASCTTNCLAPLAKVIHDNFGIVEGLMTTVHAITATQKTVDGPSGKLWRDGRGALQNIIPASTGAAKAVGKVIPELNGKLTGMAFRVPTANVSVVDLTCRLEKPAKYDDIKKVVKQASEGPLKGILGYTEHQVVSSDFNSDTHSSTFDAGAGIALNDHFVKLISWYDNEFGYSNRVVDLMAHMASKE

## CCN(CC)C(=O)[C@H]1C[C@H](CC(=O)NC/C=C(\C)CCC=C(C)C)C(=O)N2CCc3c([nH]c4ccc(Cl)cc34)[C@]12C
[1]
  IC50: < 0.368 µM (active)
[2]
  IC50: 1.72 µM (active)
[3]
  EC50: > 53 µM (inactive)

## CCOc1ccc(NC(=O)Cn2nnc(C(=O)NCc3ccccc3OC)c2N)cc1
[4]
  AC50: 5.01 µM (inconclusive)
[5]
  AC50: inconclusive

## O=C(NC1CCCCC1)c1ccc([N+](=O)[O-])o1
[6]
  IC50: > 25 µM (active)
[7]
  CC50: 18.4 µM (active)

## CC1(C)CCSC(/C=C/c2ccccc2)=N1
[6]
  IC50: 19.2 µM (active)
[7]
  CC50: 18.5 µM (active)
[8]
  EC50: 143 µM (active)
[9]
  EC50: 12.4 µM (active)
[10]
  EC50: 7.83 µM (active)
[11]
  EC50: 8.6 µM (active)

## C[C@@H]1CCCCO[C@@H](CN(C)Cc2ccc(Cl)c(Cl)c2)[C@@H](C)CN([C@@H](C)CO)C(=O)c2cc(NC(=O)Nc3ccccc3)ccc2O1
[12]
  AC50: 4.6 µM (active)
[13]
  AC50: 30.2 µM (active)
[14]
  AC50: 49.2 µM (active)

## C=CCNC(=S)N/N=C/c1ccc(-c2cc(Cl)ccc2Cl)o1
[4]
  AC50: 3.16 µM (inconclusive)
[15]
  AC50: 10 µM (inconclusive)
[5]
  AC50: inconclusive

## C/C(=N\NC(=O)C(c1ccccc1)c1ccccc1)c1ccccn1
[16]
  AC50: 1.3 µM (active)
[17]
  AC50: 5.96 µM (active)

## Cc1no[n+]([O-])c1COc1ccccc1/C=N/n1nnnc1N
[18]
  IC50: 35.9 µM (inactive)
[19]
  EC50: 98.6 µM (active)
[20]
  IC50: 35.9 µM (inactive)
[21]
  EC50: 7.52 µM (active)
[22]
  IC50: 35.9 µM (inactive)

## COc1ccc(C(=O)Nc2ccc(C)cn2)c(OC)c1
[23]
  EC50: 0.307 µM (active)
[24]
  EC50: 1.15 µM (active)
[25]
  EC50: 28.2 µM (active)
[17]
  AC50: 3.7 µM (active)

## COc1cc(S(=O)(=O)Nc2cccnc2)c(OC)cc1Br
[26]
  IC50: > 100 µM (not active)

## CCOc1ccc(NC(=O)CSc2nncc(O)n2)cc1
[18]
  IC50: 35.9 µM (inactive)
[20]
  IC50: 0.594 µM (active)
[22]
  IC50: 0.178 µM (active)
